Where two headings read alike, the source gives them in different places. Starred links: 1 amine or outer side, 2 acyl side, 3 side chain; linkers in the order of their positions; H or OH if unused. Positions of bridges follow the written chain, without caps; N, C: chain ends. Residues, ends and D or L forms follow the SMILES beside them. Groups on a side chain read outwards from the residue. No end group written: not given here. *: point of attachment. C20 diacid = O=C(O)CCCCCCCCCCCCCCCCCCC(=O)*; γGlu = O=C(O)[C@H](CCC(=O)[*:2])N[*:1]
Experiments:
[1] = Half-life of compound A2 in the rat; settings: in vivo, read-out: 0% of compound A2 (half-life)
Method: (§1) Following at least 1 week of insulin dose stabilization, animals are entered into each of 5 supplemental treatments comprising administration of the long-acting amylin agonist, compound A2, at doses of 1, 3, 10, 30 or 100 μg/day as a single daily injection, in addition to the fixed daily Levemir dose. (Alternatively, these studies could utilize relatively short-acting pramlintide as an amylin analog.) The […] is 32-37 hours in the rat, similar to that of albumin-bound insulin detemir. Daily dosing of each therefore maintains relatively constant concentrations of each, and a relatively ratio of concentrations.

[2] = in vivo; cited from earlier work
[3] = cited from earlier work
[4] = cited from earlier work; remark: listed apart in the source
[5] = format: in vivo, rat (male Wistar); design: hypo avoidance index (benefit index; below 70 mg/dL weighted 5× vs over 180 mg/dL): scale not given here; hazard index: time above 180 mg/dL (hyperglycemic) / benefit index: time in range (above 70, below 180 mg/dL): unit not given here; settings: for benefit index: time in range (above 70, below 180 mg/dL) / hazard index: time above 180 mg/dL (hyperglycemic) / hypo avoidance index (benefit index; below 70 mg/dL weighted 5× vs over 180 mg/dL): STZ rat, A2 0 μg/kg/day
Description: Male Wistar rats are implanted intraperitoneally (sensor in abdominal aorta) with an HD-XG continuous glucose monitor (Data Sciences, St Paul, Minn.) (Brockway, Tiesma et al. 2015). This system allows up to 8 weeks of continuous capture of blood glucose concentrations.
Upon recovery from surgery and resumption of normal food intake, capture of glucose readings begins so as to include at least 4 days of non-diabetic record for each rat. To induce insulinopenic (type 1) diabetes, rats are fasted overnight and administered an intravenous dose of streptozotocin (STZ) of 60 mg/kg (Gajdosik, Gajdosikova et al. 1999). Glucose readings from the telemetry system are used to enhance survival post-STZ, by s.c. glucose supplementation in the event of hypoglycemia that often accompanies an initial release of insulin following β-cell toxicity. The telemetry is then used to affirm hyperglycemia (mean plasma glucose >300 mg/dL), and to determine if a second STZ treatment is necessary for rats that are not sufficiently hyperglycemic.
Upon becoming hyperglycemic, animals are treated daily with a sliding-scale of a long-acting insulin (insulin detemir, Levemir NOVO) so as to eliminate urinary ketones, but maintain 5% glycosuria, as determined by daily KETOSTIX and GLUCOSTIX testing, respectively (Young, Crocker et al. 1991).
Animals are assigned to one of 3 cohorts of insulin dosing (n=5/cohort). One cohort is defined as that necessary to attain −ve urinary ketones and +ve urinary glucose, as just described, but not greater than a total dose of 2 U/day. A second cohort is a high insulin dose cohort, 3× greater than cohort 1. A third cohort is one where insulin dose is 50% of that of cohort 1.
as §1
Each dose level of compound A2 is maintained for 1 week, during which glucose data is captured via telemetry. The order in which doses of compound A2 are changed is determined by a 5×5 orthogonal latin square. That is, each animal receives each dose of compound A2, but in an order that is unique relative to that of the other 4 animals in the same insulin cohort. This treatment balances out time-dependent or order-dependent changes in metabolic status of each animal, such as regeneration of insulin secretory capacity, and accommodation to the effects of an amylin agonist.
Plasma glucose values from the final 4 days of each insulin/A2 combination are aggregated and analyzed according to frequency of occurrence (cumulative distributions). Analogous to the time-in-range (TIR) assessment of clinical benefit (sometimes termed “clinical utility”) in human diabetes trials (Beck, Bergenstal et al. 2018), glucose values are categorized within bins (<70, 70-180, and >180 mg/dL). Further cuts (>250 mg/dL) are also made. Parametric descriptors of glucose values are also derived for each combination (mean and SD values, linear and logarithmic, where data are not normal but are log-normal).
Higher benefit (i.e., utility) is indicated when TIR is greatest, with the proviso that values below 70 mg/dL are not more frequent. Higher benefit is also indicated when the SD for the distribution of glucose values is least.

| Molecule | Duration ([3]; in vivo) | Peak ([3]; in vivo) [h] | Onset ([3]; in vivo) [min] | also measured |
| --- | --- | --- | --- | --- |
| CC[C@H](C)[C@H](NC(=O)[C@@H]1CCCN1C(=O)CNC(=O)[C@H](Cc1ccccc1)NC(=O)[C@H](CC(N)=O)NC(=O)[C@H](CC(N)=O)NC(=O)[C@H](CO)NC(=O)[C@H](CO)NC(=O)[C@H](CCCCN)NC(=O)[C@H](Cc1c[nH]cn1)NC(=O)[C@H](CC(C)C)NC(=O)[C@H](CCC(=O)O)NC(=O)[C@H](CC(N)=O)NC(=O)[C@H](C)NC(=O)[C@H](CC(C)C)NC(=O)[C@H](CCCNC(=N)N)NC(=O)[C@H](CCC(N)=O)NC(=O)[C@@H](NC(=O)[C@H](C)NC(=O)[C@@H]1CSSC[C@H](NC(=O)[C@@H](N)CCCCNC(=O)CC[C@H](NC(=O)CC[C@H](NC(=O)CCCCCCCCCCCCCCCCCCC(=O)O)C(=O)O)C(=O)O)C(=O)N[C@@H](CC(N)=O)C(=O)N[C@@H]([C@@H](C)O)C(=O)N[C@@H](CO)C(=O)N[C@@H]([C@@H](C)O)C(=O)N1)[C@@H](C)O)C(=O)N[C@@H](CC(C)C)C(=O)N1CCC[C@H]1C(=O)N1CCC[C@H]1C(=O)N[C@H](C(=O)N[C@@H](CCCCN)C(=O)N[C@H](C(=O)NCC(=O)N[C@@H](CO)C(=O)N[C@@H](CCC(=O)O)C(=O)N[C@H](C(=O)N[C@@H](Cc1ccc(O)cc1)C(N)=O)[C@@H](C)O)C(C)C)[C@@H](C)O [Compound A2] (H-K([γGlu-γGlu-C20 diacid])CNTSTCATQRLANELHKSSNNFGPILPPTKVGSETY-NH2; disulfide 2-7) |  |  |  | half-life [1]: 32 to 37 h |
| Davalintide |  |  |  | half-life [2]: about 26 minutes |
| aspart [Fiasp ® (aspart)] | 3 to 5 h | 1 to 3 |  | Onset, sooner than Rapid Acting Insulins ([3]; relative to rapid-acting insulins): about 5 mins |
| aspart [Novo's Novolog ® (aspart)] | 3 to 5 h | 0.667 to 0.833 | 10 to 20 |  |
| glulisine [Sanofi's Apidra ® (glulisine)] |  | 0.5 to 1.5 | 20 to 30 |  |
| human amylin: 37-residue polypeptide hormone co-secreted with insulin from pancreatic β-cells (SEQ ID NO: 5) (KCNTATCATQRLANFLVHSSNNFGAILSSTNVGSNTY; disulfide 2-7; listed as Homo sapiens) |  |  |  | half-life ([4]; in humans): about 13 minutes; half-life in serum ([4]; serum): about 13 minutes |
| insulin degludec [Novo's Tresiba ® (insulin degludec)] | 42 h |  | 30 to 90 | Peak ([3]; result in words): No peak time |
| insulin detemir [Novo's Levemir ® (insulin detemir)] | Up to 24 hours | 6 to 8 | 60 to 120 | benefit index: time in range (above 70, below 180 mg/dL) ([5]; insulin 1 U/day): 39.5; hazard index: time above 180 mg/dL (hyperglycemic) ([5]; insulin 1 U/day): 60.2; hypo avoidance index (benefit index; below 70 mg/dL weighted 5× vs over 180 mg/dL) ([5]; insulin 1 U/day): 33.8; benefit index: time in range (above 70, below 180 mg/dL) ([5]; insulin 2 U/day): 64.9; hazard index: time above 180 mg/dL (hyperglycemic) ([5]; insulin 2 U/day): 29.4; hypo avoidance index (benefit index; below 70 mg/dL weighted 5× vs over 180 mg/dL) ([5]; insulin 2 U/day): 41.6; benefit index: time in range (above 70, below 180 mg/dL) ([5]; insulin 6 U/day): 78.9; hazard index: time above 180 mg/dL (hyperglycemic) ([5]; insulin 6 U/day): 2.8; hypo avoidance index (benefit index; below 70 mg/dL weighted 5× vs over 180 mg/dL) ([5]; insulin 6 U/day): 5.7; blood glucose values within range 70-180 mg/dL (TIR) ([5]; post-STZ rats, 2 U/day Levemir, no A2): 64.9%; blood glucose values <70 mg/dL ([5]; rat, in vivo): 5.8%; proportion of time spent below 70 mg/dL ([5]; rat, in vivo): markedly increase |
| insulin glargine | 20 to 24 h |  |  | Peak ([3]; result in words): No peak time. |
| lispro [Lilly's Humalog ® (lispro)] | 3 to 5 h | 0.5 to 1.5 | 15 to 30 |  |
| recombinant insulin [Novo's Novolin ® (recombinant insulin)] | 5 to 8 h | 2 to 5 |  |  |
| velosulin: human insulin for use in an insulin pump, short-acting | 2 to 3 h | 1 to 2 |  |  |
